Assay results published in patent US4925869A, “Therapeutic agents” (Imperial Chemical Industries PLC, priority 1986, dated 1990).

Legend:
Type in all cases: cell-based
human platelets = assay: inhibition of arachidonic acid induced aggregation of human platelets
Excerpt: The beneficial effects of combining one of the novel TXA2 antagonists of formula I defined hereinabove with a TXA2 synthetase inhibitor may be illustrated in vitro, for example by evaluating their effects in inhibiting arachidonic acid induced aggregation of human platelets, using standard procedures well known in the art.

[1] = biological target: T1, human, citrated platelet rich plasma (Homo sapiens, UniProt P21731); assay: blood platelet aggregation test, U46619-induced aggregation of human citrated platelet rich plasma (test (b)); conditions: U46619, procedure (b)
T1 construct: aggregating human, citrated platelet rich plasma; from tissue; host or cells: human citrated platelet rich plasma (native platelets)
T1 sequence (P21731 1-343): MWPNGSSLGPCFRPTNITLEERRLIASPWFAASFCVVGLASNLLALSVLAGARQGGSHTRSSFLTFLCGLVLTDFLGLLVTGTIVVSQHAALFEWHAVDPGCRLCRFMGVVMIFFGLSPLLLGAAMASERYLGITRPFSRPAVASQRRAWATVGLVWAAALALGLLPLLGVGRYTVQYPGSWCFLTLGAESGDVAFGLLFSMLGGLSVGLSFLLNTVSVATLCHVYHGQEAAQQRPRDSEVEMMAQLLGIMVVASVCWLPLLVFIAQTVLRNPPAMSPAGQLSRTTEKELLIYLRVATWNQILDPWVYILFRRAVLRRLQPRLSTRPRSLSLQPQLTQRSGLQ
Excerpt: (b) a blood platelet aggregation test based on that described by Born (Nature, 1962, 194, 927-929) and involving:
(i) aggregating human, citrated platelet rich plasma by addition of the TXA2 mimetic agent U46619 so that a dose-response curve is generated:
(ii) generating a dose-response curve for U46619 stimulated platelet aggregation in the presence of increasing amounts of test compound (generally in the range, 10^-5 M to 10^-10 M); and
(iii) calculating a KB value indicating potency of TXA2 antagonism for the test compound, averaged over several concentrations, from the calculated 50% response value for U46619 aggregation in the presence and absence of test compound: and (c) a bronchoconstriction test involving measuring the inhibition by test compound of the bronchoconstriction induced in the Konzett-Rossler, anaesthetised guinea-pig model (as modified by Collier and James, Brit. J. Pharmacol., 1967, 30, 283-307) by intravenous administration of the TXA2 mimetic agent, U46619 and involving: […]

rat aortal strip = biological target: T2, rat aortal strip (Rattus norvegicus, UniProt P34978); assay: rat aortal strip model, antagonism of the TXA2 mimetic U46619 (test (a)); conditions: agonist U46619, procedure (a), read-out: pA2 (converted)
T2 construct: the rat aortal strip model developed by Kennedy et alia; from tissue; host or cells: rat aorta strip
T2 sequence (P34978 1-341): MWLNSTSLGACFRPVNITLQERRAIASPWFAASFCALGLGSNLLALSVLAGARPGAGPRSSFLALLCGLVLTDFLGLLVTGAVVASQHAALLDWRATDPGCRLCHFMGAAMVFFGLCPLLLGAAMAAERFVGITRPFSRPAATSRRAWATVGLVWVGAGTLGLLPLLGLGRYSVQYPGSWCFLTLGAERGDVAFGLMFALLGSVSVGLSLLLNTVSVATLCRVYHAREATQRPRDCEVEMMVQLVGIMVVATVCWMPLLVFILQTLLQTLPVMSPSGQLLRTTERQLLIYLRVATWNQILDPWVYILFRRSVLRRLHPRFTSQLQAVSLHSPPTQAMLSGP
Excerpt: As stated earlier, the compounds of formula I are antagonists of one or more of the actions of TXA2, for example certain of its actions on blood platelets, the vasculature and/or the lung.
(a) The rabbit aortal strip model devised by Piper and Vane (Nature, 1969, 223, 29-35) or the rat aortal strip model developed by Kennedy et alia (Prostaglandins, 1982, 24, 667-689), using as agonist the TXA2 mimetic agent known as U46619 (described by R. L. Jones et alia. in "Chemistry, Biochemistry and Pharmacological Activity of Prostanoids" edited by S. M. Roberts and F. Scheinmann, at page 211, Pergamon Press, 1979);

Kb [1] [nM] | Kb (rat aortal strip) [nM] | Compound | inhibition of arachidonic acid induced aggregation of human platelets (human platelets; tested alone at 10^-4 M) | inhibition of arachidonic acid induced aggregation of human platelets (human platelets; tested alone at 10^-9 M)
– | – | O=C(O)c1ccc(OCCn2ccnc2)cc1 [dazoxiben, reference compound] | no significant inhibition | –
17.5 | 0.195 | CC(C)(Oc1ccccc1)[C@H]1OC[C@@H](C/C=C\CCC(=O)O)[C@@H](c2ccccc2O)O1 (relative stereo) [Example 6, 4(Z) 6 ([2,4,5 cis]4-o-hydroxyphenyl-2-[1-methyl-1-phenoxyethyl] -1,3-dioxan-5-yl)hexenoic acid] | – | no significant inhibition
